Earlier results as cited in patent publication US9035093B2 (Colgate-Palmolive Company, priority 2009, dated 2015).

Settings: room temperature, natural partial pressure (3.5×10^−4 atmosphere)

For O=C=O [Carbon dioxide], which “maximum concentration of carbon dioxide in water” value is on record?
Its value is 12 µM.
